In the experiment the test system is Plasmodium berghei. The experiment can be described thus: Luciferase/luciferin-expressing antifolate-resistant parasites were used to infect a culture of HepG2 cells that were pre-incubated with compounds. Infected hepatocytes emit light due to the luciferase reaction. Assay results are presented as the percent inhibition of light emission compared to control. […]. In kind it is functional. The note with it: sporozoite; for IC90: read-out: LUCIFERASE INFECTION ASSAY - IC90.

Setting [1] is: read-out: LUCIFERASE INFECTION ASSAY - IC50.

This is an account of results in ChEMBL document CHEMBL4483862, “Open-source discovery of chemical leads for next-generation chemoprotective antimalarials” (2018).

Molecules are shown by their SMILES.

In general, IC50 refers to the concentration at which inhibition is half-maximal. A word on the IC90: it is the concentration at which the effect reaches the 90% level. On to `CN(C)CCNC(=O)c1ccc(-c2cn3c(-c4ccc(Oc5ccccc5)cc4)cnc3cn2)cc1`, for which the concentration for an effect of 90% (IC90) was more than 6.91 µM. The IC50 under setting [1] was 5.8 µM.

In the case of `CCCN(CC(=O)N1N=C(c2ccc(C)cc2)CC1c1ccco1)Cc1nnc(-c2ccco2)o1` (stereo unspecified), the 90% effect concentration (IC90) is more than 10 µM. Moreover, the IC50 under setting [1] is more than 10 µM.

As to `Cc1nccnc1-c1ccnn1C(=O)Nc1cc(Cl)cc(Cl)c1`, the IC90 was determined as 0.481 µM. The half-inhibitory concentration (IC50) (HEPG2TOX_HILL_SLOPE 3.03, HEPG2TOX_R_SQUARED 0.982, PBLUC_HILL_SLOPE 8.5, PBLUC_R_SQUARED 0.804, read-out: LUCIFERASE INFECTION ASSAY - IC50) turned out to be 0.372 µM.

On to `Cc1ccc(C)c(S(=O)(=O)CCN2C(=O)C(=O)N(Cc3cccs3)C2=O)c1`, for which the IC90 is more than 10 µM. Further, the half-maximal inhibitory concentration (IC50) under setting [1] was more than 10 µM.

As for `Cc1c(C(=O)Nc2nc3c(C)cccc3s2)[nH]c2c1C(=O)CCC2`, the IC90 is more than 10 µM. In addition, the IC50 (PBLUC_HILL_SLOPE 2.07, PBLUC_R_SQUARED 0.0587, read-out: LUCIFERASE INFECTION ASSAY - IC50) is 5.05 µM.

Turning to `Cc1ccc(NC(=O)C(OC(=O)c2c(C)noc2C)c2ccccc2)cc1Cl` (stereo unspecified), the concentration for an effect of 90% (IC90) was more than 10 µM. For the same molecule, under setting [1], the half-maximal inhibitory concentration (IC50) was more than 10 µM.

On to `CCOc1ccc(C(=O)Nc2nc3ccccn3c2C(=O)NC(C)C)cc1`, for which the IC90 amounted to 8.41 µM. The IC50 (HEPG2TOX_HILL_SLOPE 0.179, HEPG2TOX_R_SQUARED 0.152, PBLUC_HILL_SLOPE 1.27, PBLUC_R_SQUARED 0.525, read-out: LUCIFERASE INFECTION ASSAY - IC50) worked out at 1.5 µM.

Regarding `O=C(Nc1ccc(OCc2ccccc2)cc1)c1csc(C(O)c2cccc(Cl)c2)n1` (stereo unspecified), the IC90 is 3.73 µM. Besides, the IC50 (HEPG2TOX_HILL_SLOPE 2.48, HEPG2TOX_R_SQUARED 0.94, PBLUC_HILL_SLOPE 11.3, PBLUC_R_SQUARED 0.644, read-out: LUCIFERASE INFECTION ASSAY - IC50) amounted to 3.07 µM.

Take `Cc1cccc(C(=O)NCCC(=O)NCc2ccccc2F)c1`: the IC90 is more than 10 µM. The concentration for half-maximal inhibition (IC50) under setting [1] was more than 10 µM.

Take `CC(=O)c1cccc(-c2cnc3ccc(-c4cccc(C(F)(F)F)c4)nn23)c1`: the IC90 was determined as 4.27 µM. Also, the half-maximal inhibitory concentration (IC50) (HEPG2TOX_HILL_SLOPE 8.49, HEPG2TOX_R_SQUARED 0.595, PBLUC_HILL_SLOPE 2.29, PBLUC_R_SQUARED 0.849, read-out: LUCIFERASE INFECTION ASSAY - IC50) was found to be 1.64 µM.

`CCOc1ccc(NC(=S)N/N=C2/C(=O)c3cccc4cccc2c34)cc1`: the IC90 was more than 10 µM. Moreover, under “FFLUC_HILL_SLOPE 16.1, FFLUC_R_SQUARED 0.465, PBLUC_HILL_SLOPE 2.76, PBLUC_R_SQUARED 0.814, read-out: LUCIFERASE INFECTION ASSAY - IC50”, the IC50 was determined as 4.61 µM.

Turning to `C=C1CC(=O)N(c2ccc(OC(F)(F)F)cc2)C1=O`, the IC90 was more than 12.2 µM. Under setting [1], the IC50 is more than 12.2 µM.

For the molecule `O=C(CSc1nnc(Nc2ccc(SC(F)F)cc2)s1)c1cccs1`, the concentration for an effect of 90% (IC90) was more than 10 µM. Also, for the setting “FFLUC_HILL_SLOPE 26.5, FFLUC_R_SQUARED 0.442, read-out: LUCIFERASE INFECTION ASSAY - IC50”, the concentration for half-maximal inhibition (IC50) was more than 10 µM.

Turning to `COc1ccc(C(N)c2csc(NC(=O)Nc3cccc(C#N)c3)n2)cc1` (stereo unspecified), the IC90 came to 3.43 µM. Further, the IC50 (PBLUC_HILL_SLOPE 15.3, PBLUC_R_SQUARED 0.483, read-out: LUCIFERASE INFECTION ASSAY - IC50) was found to be 2.97 µM.

On to `CCN(CC(=O)Nc1ccccc1C(F)(F)F)C(=O)Cn1c(=O)cnc2ccccc21`, for which the concentration for an effect of 90% (IC90) is more than 10 µM. Besides, the half-maximal inhibitory concentration (IC50) under setting [1] was more than 10 µM.

On to `N#C/C(=C\c1ccccc1Cl)c1nc2ccccc2[nH]1`, for which the IC90 was more than 11.8 µM. In addition, under setting [1], the half-inhibitory concentration (IC50) was more than 11.8 µM.

Turning to `CSc1sc(C#N)c2c1/C(=N/OC(=O)c1ccc(Cl)cc1)CCC2`, the IC90 was more than 8.76 µM. For the same molecule, the concentration for half-maximal inhibition (IC50) (FFLUC_HILL_SLOPE 4.66, FFLUC_R_SQUARED 0.795, read-out: LUCIFERASE INFECTION ASSAY - IC50) was more than 8.76 µM.

In the case of `CCOc1ccc(/C=C(/C(=O)NCc2ccc(F)cc2)c2nc3ccccc3[nH]2)cc1`, the concentration for an effect of 90% (IC90) was determined as 5.81 µM. In addition, the IC50 (PBLUC_HILL_SLOPE 89.9, PBLUC_R_SQUARED 0.419, read-out: LUCIFERASE INFECTION ASSAY - IC50) stood at 5.67 µM.

In the case of `COc1ccc(/C(C)=N/OCC(=O)O)cc1`, the 90% effect concentration (IC90) was more than 14.8 µM. Besides, for the setting “PBLUC_HILL_SLOPE 3.66, PBLUC_R_SQUARED 0.112, read-out: LUCIFERASE INFECTION ASSAY - IC50”, the IC50 is more than 14.8 µM.

As for `Cc1cccc(-c2nn(-c3ccccc3)cc2/C=C2\CCn3c2nc2cc(Cl)ccc2c3=O)c1`, the 90% effect concentration (IC90) was more than 10 µM. The half-maximal inhibitory concentration (IC50) (FFLUC_HILL_SLOPE 2.22, FFLUC_R_SQUARED 0.239, read-out: LUCIFERASE INFECTION ASSAY - IC50) is more than 10 µM.

`C(=C1\CCc2cnc3scc[n+]3c21)/c1ccccc1`: the 90% effect concentration (IC90) was more than 10 µM. Also, where the note is “HEPG2TOX_HILL_SLOPE 2.32, HEPG2TOX_R_SQUARED 0.938, read-out: LUCIFERASE INFECTION ASSAY - IC50”, the IC50 is more than 10 µM.

In the case of `O=C(CSCCCN1CCN(c2cccc(Cl)c2)CC1)N/N=C/c1ccccc1`, the concentration for an effect of 90% (IC90) was more than 7.66 µM. The half-inhibitory concentration (IC50) under setting [1] is more than 7.66 µM.

Take `COc1ccccc1NC(=O)/C=c1\s/c(=C\c2ccc(-c3ccccc3F)o2)c(=O)n1C`: the IC90 came to 3.75 µM. Moreover, the IC50 (HEPG2TOX_HILL_SLOPE 2.21, HEPG2TOX_R_SQUARED 0.937, PBLUC_HILL_SLOPE 21.9, PBLUC_R_SQUARED 0.468, read-out: LUCIFERASE INFECTION ASSAY - IC50) was determined as 3.39 µM.

As for `C=CCNC(=O)NC(=O)CSc1nnc(-c2ccc(OC)cc2)n1-c1cccc(C(F)(F)F)c1`, the IC90 is 6.91 µM. Under “HEPG2TOX_HILL_SLOPE 2.39, HEPG2TOX_R_SQUARED 0.903, PBLUC_HILL_SLOPE 3.60, 2.97, PBLUC_R_SQUARED 0.951, 0.459, read-out: LUCIFERASE INFECTION ASSAY - IC50”, the concentration for half-maximal inhibition (IC50) was 3.56 µM.

Turning to `Cc1ccc2nc(SCC(=O)c3cc(C)n(-c4ccc5c(c4)OCCO5)c3C)[nH]c2c1`, the IC90 is more than 10 µM. Besides, the half-maximal inhibitory concentration (IC50) (FFLUC_HILL_SLOPE 12.9, FFLUC_R_SQUARED 0.345, HEPG2TOX_HILL_SLOPE 0.403, HEPG2TOX_R_SQUARED 0.877, read-out: LUCIFERASE INFECTION ASSAY - IC50) was more than 10 µM.

For the molecule `CC(=O)N(/N=C/c1ccc(C(F)(F)F)cc1)C1=NN(C(C)=O)C(c2ccc(C(F)(F)F)cc2)S1` (stereo unspecified), the IC90 was more than 6.57 µM. Moreover, under setting [1], the IC50 is more than 6.57 µM.

Regarding `Cn1nnnc1Sc1ccc([N+](=O)[O-])c2cnccc12`, the IC90 amounted to 3.42 µM. The IC50 (HEPG2TOX_HILL_SLOPE 3.78, HEPG2TOX_R_SQUARED 0.957, PBLUC_HILL_SLOPE 12.7, PBLUC_R_SQUARED 0.328, read-out: LUCIFERASE INFECTION ASSAY - IC50) turned out to be 2.88 µM.

For `Cc1cc(C(=O)N(C)Cc2nc(=O)c3ccccc3[nH]2)c(C)n1-c1ccccc1F`, the IC90 was more than 10 µM. Also, the IC50 (PBLUC_HILL_SLOPE 1.44, PBLUC_R_SQUARED 0.478, read-out: LUCIFERASE INFECTION ASSAY - IC50) came out at 6.97 µM.

As to `Cc1cc(C(=O)CSc2nc3ccccc3[nH]2)c(C)n1CC1CCCO1` (stereo unspecified), the IC90 is 4.43 µM. Where the note is “HEPG2TOX_HILL_SLOPE 3.03, HEPG2TOX_R_SQUARED 0.337, PBLUC_HILL_SLOPE 0.528, 1.10, PBLUC_R_SQUARED 0.856, 0.809, read-out: LUCIFERASE INFECTION ASSAY - IC50”, the IC50 came out at 0.144 µM.

As to `CCN(CCC#N)c1ccc(/C=C2/C(=O)Nc3cc(Cl)ccc32)c(C)c1`, the IC90 is more than 10 µM. In addition, the half-maximal inhibitory concentration (IC50) under setting [1] was more than 10 µM.

For `CC(C)(CSc1ccc(F)cc1)NS(=O)(=O)c1ccc(Cl)cc1`, the IC90 was more than 10 µM. The IC50 (FFLUC_HILL_SLOPE 2.37, FFLUC_R_SQUARED 0.607, HEPG2TOX_HILL_SLOPE 7.41, HEPG2TOX_R_SQUARED 0.381, PBLUC_HILL_SLOPE 2.26, 0.933, PBLUC_R_SQUARED 0.368, 0.781, read-out: LUCIFERASE INFECTION ASSAY - IC50) came to 4.38 µM.

Take `Cc1cc(/C=C2\SC(N3CCOCC3)=NC2=O)c(C)n1-c1cccc(C(F)(F)F)c1`: the IC90 is more than 10 µM. For the same molecule, under setting [1], the half-maximal inhibitory concentration (IC50) is more than 10 µM.

As for `CC(C)(C)C(=O)/C=c1\[nH]c(=O)/c(=C/c2cc(F)cc3c2OCOC3)s1`, the IC90 is more than 10 µM. Moreover, the half-maximal inhibitory concentration (IC50) (PBLUC_HILL_SLOPE 2.84, PBLUC_R_SQUARED 0.665, read-out: LUCIFERASE INFECTION ASSAY - IC50) amounted to 6.37 µM.

`OCc1cccc(-c2cnc3ccc(-c4ccc(F)cc4)nn23)c1`: the IC90 was 6.8 µM. For the same molecule, under “HEPG2TOX_HILL_SLOPE 2.34, HEPG2TOX_R_SQUARED 0.934, PBLUC_HILL_SLOPE 3.16, PBLUC_R_SQUARED 0.564, read-out: LUCIFERASE INFECTION ASSAY - IC50”, the IC50 is 3.39 µM.

For the molecule `COc1ccc(S(=O)(=O)N(Cc2cccs2)c2ccc3c(c2)OCCO3)cc1NC(C)=O`, the IC90 was more than 10 µM. Besides, where the note is “HEPG2TOX_HILL_SLOPE 1.25, HEPG2TOX_R_SQUARED 0.989, PBLUC_HILL_SLOPE 1.59, PBLUC_R_SQUARED 0.297, read-out: LUCIFERASE INFECTION ASSAY - IC50”, the IC50 was 4.15 µM.

Take `CCOC(=O)/C(=N\Nc1cc(C(F)(F)F)ccc1Cl)N1CCN(C(c2ccccc2)c2ccccc2)CC1`: the IC90 was more than 10 µM. Also, the concentration for half-maximal inhibition (IC50) under setting [1] turned out to be 4.97 µM.

Turning to `O=C(NNC(=O)c1cccs1)c1cncc(C#Cc2ccccc2)c1`, the IC90 was more than 9.5 µM. Besides, the half-inhibitory concentration (IC50) under setting [1] was more than 9.5 µM.

Turning to `CC(C)NC(=O)N1CCCC(C(=O)Nc2nc3c(ccc4ccccc43)s2)C1` (stereo unspecified), the IC90 is more than 10 µM. In addition, under “PBLUC_HILL_SLOPE 2.07, PBLUC_R_SQUARED 0.824, read-out: LUCIFERASE INFECTION ASSAY - IC50”, the IC50 was found to be 4.39 µM.
